Measurements published in ChEMBL document CHEMBL1275392, “Assessment of chemoselective neoglycosylation methods using chlorambucil as a model” (2010).

Tests used:
Format in all cases: functional
U-251 [1] = assay: Growth inhibition of human U251 cells at 10 uM after 7 days by celltiter-glo assay; settings: U-251, 168 h, read-out: GI
MCF7 [2] = assay: Growth inhibition of human MCF7 cells at 10 uM after 7 days by celltiter-glo assay; settings: MCF7, 168 h, read-out: GI
SW-620 = assay: Growth inhibition of human SW620 cells at 10 uM after 7 days by celltiter-glo assay; settings: SW-620, 168 h, read-out: GI
NCI-H460 = assay: Growth inhibition of human NCI-H460 cells at 10 uM after 7 days by celltiter-glo assay; settings: NCI-H460, 168 h, read-out: GI
MOLT-4 = assay: Growth inhibition of human MOLT4 cells at 10 uM after 7 days by celltiter-glo assay; settings: MOLT-4, 168 h, read-out: GI
SK-OV-3 = assay: Growth inhibition of human SKOV3 cells after 7 days by celltiter-glo assay; settings: SK-OV-3, 168 h
SK-MEL-28 = assay: Growth inhibition of human SK-MEL-28 cells after 7 days by celltiter-glo assay; settings: SK-MEL-28, 168 h
SR [3] = assay: Growth inhibition of human SR cells at 10 uM after 7 days by celltiter-glo assay; settings: 168 h, read-out: GI
SNB-75 = assay: Growth inhibition of human SNB75 cells after 7 days by celltiter-glo assay; settings: SNB-75, 168 h
U-251 [4] = assay: Growth inhibition of human U251 cells after 7 days by celltiter-glo assay; settings: U-251, 168 h
BT-549 = assay: Growth inhibition of human BT549 cells after 7 days by celltiter-glo assay; settings: BT-549, 168 h
[5] = Growth inhibition of human Hs 578T cells after 7 days by celltiter-glo assay; settings: 168 h
SN12C [6] = assay: Growth inhibition of human SN12C cells after 7 days by celltiter-glo assay; settings: 168 h
EKVX [7] = assay: Growth inhibition of human EKVX cells after 7 days by celltiter-glo assay; settings: 168 h
SF-539 = assay: Growth inhibition of human SF539 cells at 10 uM after 7 days by celltiter-glo assay; settings: SF-539, 168 h, read-out: GI
MDA-MB-231 = assay: Growth inhibition of human MDA-MB-231 cells at 10 uM after 7 days by celltiter-glo assay; settings: MDA-MB-231, 168 h, read-out: GI
ACHN = assay: Growth inhibition of human ACHN cells after 7 days by celltiter-glo assay; settings: 168 h
SN12C [8] = assay: Growth inhibition of human SN12C cells at 10 uM after 7 days by celltiter-glo assay; settings: 168 h, read-out: GI
HCT-116 = assay: Growth inhibition of human HCT116 cells after 7 days by celltiter-glo assay; settings: HCT-116, 168 h
HT-29 = assay: Growth inhibition of human HT-29 cells at 10 uM after 7 days by celltiter-glo assay; settings: HT-29, 168 h, read-out: GI
SK-MEL-2 = assay: Growth inhibition of human SK-MEL-2 cells after 7 days by celltiter-glo assay; settings: SK-MEL-2, 168 h
MDA-MB-468 [9] = assay: Growth inhibition of human MDA-MB-468 cells at 10 uM after 7 days by celltiter-glo assay; settings: MDA-MB-468, 168 h, read-out: GI
NCI-H522 = assay: Growth inhibition of human NCI-H522 cells after 7 days by celltiter-glo assay; settings: NCI-H522, 168 h
EKVX [10] = assay: Growth inhibition of human EKVX cells at 10 uM after 7 days by celltiter-glo assay; settings: 168 h, read-out: GI
OVCAR-4 = assay: Growth inhibition of human OVCAR4 cells at 10 uM after 7 days by celltiter-glo assay; settings: OVCAR-4, 168 h, read-out: GI
M14 [11] = assay: Growth inhibition of human M14 cells at 10 uM after 7 days by celltiter-glo assay; settings: M14, 168 h, read-out: GI
SK-MEL-5 [12] = assay: Growth inhibition of human SK-MEL-5 cells after 7 days by celltiter-glo assay; settings: SK-MEL-5, 168 h
SNB-19 = assay: Growth inhibition of human SNB19 cells at 10 uM after 7 days by celltiter-glo assay; settings: SNB-19, 168 h, read-out: GI
MCF7 [13] = assay: Growth inhibition of human MCF7 cells after 7 days by celltiter-glo assay; settings: MCF7, 168 h
OVCAR-3 = assay: Growth inhibition of human OVCAR-3 cells after 7 days by celltiter-glo assay; settings: OVCAR-3, 168 h
HCC 2998 = assay: Growth inhibition of human HCC2998 cells at 10 uM after 7 days by celltiter-glo assay; settings: HCC 2998, 168 h, read-out: GI
UO-31 = assay: Growth inhibition of human UO31 cells at 10 uM after 7 days by celltiter-glo assay; settings: UO-31, 168 h, read-out: GI
T47D = assay: Growth inhibition of human T47D cells after 7 days by celltiter-glo assay; settings: 168 h
NCI/ADR-RES = assay: Growth inhibition of human NCI/ADR-RES cells at 10 uM after 7 days by celltiter-glo assay; settings: 168 h, read-out: GI
SK-MEL-5 [14] = assay: Growth inhibition of human SK-MEL-5 cells at 10 uM after 7 days by celltiter-glo assay; settings: SK-MEL-5, 168 h, read-out: GI
HL-60(TB) [15] = assay: Growth inhibition of human HL-60(TB) cells after 7 days by celltiter-glo assay; settings: HL-60, 168 h
MDA-MB-468 [16] = assay: Growth inhibition of human MDA-MB-468 cells after 7 days by celltiter-glo assay; settings: MDA-MB-468, 168 h
M14 [17] = assay: Growth inhibition of human M14 cells after 7 days by celltiter-glo assay; settings: M14, 168 h
SR [18] = assay: Growth inhibition of human SR cells after 7 days by celltiter-glo assay; settings: 168 h
A549 = assay: Growth inhibition of human A549 cells at 10 uM after 7 days by celltiter-glo assay; settings: A549, 168 h, read-out: GI
TK-10 = assay: Growth inhibition of human TK10 cells after 7 days by celltiter-glo assay; settings: TK-10, 168 h
OVCAR-5 = assay: Growth inhibition of human OVCAR5 cells at 10 uM after 7 days by celltiter-glo assay; settings: OVCAR-5, 168 h, read-out: GI
NCI-H23 = assay: Growth inhibition of human NCI-H23 cells at 10 uM after 7 days by celltiter-glo assay; settings: NCI-H23, 168 h, read-out: GI
MDA-MB-435 = assay: Growth inhibition of human MDA-MB-435 cells at 10 uM after 7 days by celltiter-glo assay; settings: MDA-MB-435, 168 h, read-out: GI
CCRF-CEM = assay: Growth inhibition of human CCRF-CEM cells at 10 uM after 7 days by celltiter-glo assay; settings: 168 h, read-out: GI
HL-60(TB) [19] = assay: Growth inhibition of human HL-60(TB) cells at 10 uM after 7 days by celltiter-glo assay; settings: HL-60, 168 h, read-out: GI

CON(CCCc1ccc(N(CCCl)CCCl)cc1)C1OC[C@@H](O)[C@@H]1O (stereo partly specified)
inhibition of growth at 10 µM (U-251 [1]): 59.9%
inhibition of growth at 10 µM (MCF7 [2]): 32.4%
inhibition of growth at 10 µM (SW-620): 68.1%
inhibition of growth at 10 µM (NCI-H460): 35.8%
inhibition of growth at 10 µM (MOLT-4): 64.4%
GI50 (SK-OV-3): 1.5 µM
GI50 (SK-MEL-28): 36.5 µM
inhibition of growth at 10 µM (SR [3]): 48.7%
GI50 (SNB-75): 19.5 µM
GI50 (U-251 [4]): 13.1 µM
GI50 (BT-549): 13.4 µM
GI50 [5]: 24.7 µM
GI50 (SN12C [6]): 7.06 µM
GI50 (EKVX [7]): 37.9 µM
inhibition of growth at 10 µM (SF-539): 51.8%
inhibition of growth at 10 µM (MDA-MB-231): 87.5%
GI50 (ACHN): 4.34 µM
inhibition of growth at 10 µM (SN12C [8]): 54.2%
GI50 (HCT-116): 14.5 µM
inhibition of growth at 10 µM (HT-29): 70.7%
GI50 (SK-MEL-2): 20.2 µM
inhibition of growth at 10 µM (MDA-MB-468 [9]): 43.9%
GI50 (NCI-H522): 10 µM
inhibition of growth at 10 µM (EKVX [10]): 91.2%
inhibition of growth at 10 µM (OVCAR-4): 77.2%
inhibition of growth at 10 µM (M14 [11]): 67.2%
GI50 (SK-MEL-5 [12]): 17.7 µM
inhibition of growth at 10 µM (SNB-19): 65.8%
GI50 (MCF7 [13]): 1.8 µM
GI50 (OVCAR-3): 15.3 µM
inhibition of growth at 10 µM (HCC 2998): 73.3%
inhibition of growth at 10 µM (UO-31): 54.4%
GI50 (T47D): 6.37 µM
inhibition of growth at 10 µM (NCI/ADR-RES): 61.5%
inhibition of growth at 10 µM (SK-MEL-5 [14]): 79%
GI50 (HL-60(TB) [15]): 1.88 µM
GI50 (MDA-MB-468 [16]): 7.25 µM
GI50 (M14 [17]): 9.25 µM
GI50 (SR [18]): 0.386 µM
inhibition of growth at 10 µM (A549): 69.7%
GI50 (TK-10): 31.7 µM
inhibition of growth at 10 µM (OVCAR-5): 111%
inhibition of growth at 10 µM (NCI-H23): 54.4%
inhibition of growth at 10 µM (MDA-MB-435): 83%
inhibition of growth at 10 µM (CCRF-CEM): 21.2%
inhibition of growth at 10 µM (HL-60(TB) [19]): 68.3%
